pKd, pKi: −log10 of the molar value.
Experiments:
[1] = Binding affinity to Zymomonas mobilis tRNA guanine transglycosylase by isothermal titration calorimetry
[2] = Binding affinity to Zymomonas mobilis tRNA guanine transglycosylase assessed as inhibition of [8-3H]guanine incorporation into Escherichia coli tRNA Tyr at position G34 preincubated for 10 mins followed by tRNA Tyr/[8-3H]guanine addition measured after 30 mins by liquid scintillation counting

| pKd [1] | SMILES | pKi [2] |
| --- | --- | --- |
| 7.53 | Nc1nc2cc3nc(NCCc4ccc(C(=O)O)cc4)[nH]c3cc2c(=O)[nH]1 | 7.52 |
| – | N#Cc1ccc(CCNc2nc3cc4nc(N)[nH]c(=O)c4cc3[nH]2)cc1 | 7.68 |
| – | COC(=O)c1ccc(CCNc2nc3cc4nc(N)[nH]c(=O)c4cc3[nH]2)cc1 | 8.70 |
| 7.25 | Nc1nc2cc3nc(NCCc4ccccc4)[nH]c3cc2c(=O)[nH]1 | 8.00 |
| – | Nc1nc2cc3nc(NCCc4ccc(CCO)cc4)[nH]c3cc2c(=O)[nH]1 | 8.15 |
